Measurements published in US20230407243A1, “GENETIC PLATFORM TO INVESTIGATE THE FUNCTIONS OF BACTERIAL DRUG EFFLUX PUMPS” (priority 2022, published 2023).

Assays:
Type in all cases: cell-based, Escherichia coli
E. coli EKO-35 = assay: microbe, parasite or virus in culture; details: for Fold change of MICs: EKO-35 compared to EKO-35 (reference); for Minimum inhibitory concentration (MIC), EKO-35: Table 10, without pore; for Minimum inhibitory concentration (MIC), EKO-35 / Minimum Inhibitory Concentration, EKO-35: technical duplicate; for Minimum Inhibitory Concentration, EKO-35: Table 13A, non-porinated
Description: (§1) Single colonies were used to inoculate 3 mL of LB followed by incubation at 37° C. for 18 h with aeration at 220 rpm. The bacterial cells were harvested by centrifugation and resuspended in phosphate buffered saline (PBS) ([pH 7.4], 137 mM NaCl (Bioshop), 2.7 mM KCl (Bioshop), 10 mM Na2PO4 (Bioshop) and 1.8 mM K2PO4) to an OD600 nm˜1.0, followed by 1/2000 dilution into MHB II.
(§2) To a 384-well microtiter plate (Corning, untreated polystyrene), 500 nL of compound was dispensed, in duplicate, and serially titrated 2-fold using an Echo 550 acoustic liquid dispenser (Labcyte Inc.). […] As a solvent control, 500 nL of DMSO was applied to wells that contained no compound. Using a multichannel pipette, 50 μL of the prepared bacterial inoculum was applied to each well. To enable background correction post-incubation, the OD600 nm was measured (Biotek Synergy Neo2 microplate reader) prior to incubation. The plates were incubated at 37° C. with aeration at 900 rpm for 18 h. The plates were equilibrated to room temperature and the OD600 nm measured using a BioTek Synergy Neo2 microplate reader. Data was analyzed in both Prism (GraphPad, Version 9.2.0) and Microsoft Excel (Version 16.53). Raw data were input into Microsoft Excel and the pre-incubation OD600 nm measurements were subtracted from the post-incubation OD600 nm measurements. These corrected measurements were input into Prism 9 as a grouped analysis. […] All other MIC values were adjusted accordingly and visualized using the single-color scale grouped heat map function. Identification of compound chemical properties was achieved using DataWarrior (Version 5.5.0). Using PubChem, the SMILES chemical notation for each compound was obtained and compiled in Microsoft Excel. The resulting spreadsheet was input into DataWarrior and properties were calculated from the compound chemical structures.

E. coli ΔtolC = assay: microbe, parasite or virus in culture; details: technical duplicate; for Minimum inhibitory concentration (MIC), ΔtolC: Table 10, without pore; for Minimum Inhibitory Concentration, ΔtolC: Table 13A, non-porinated
Description: as §1, §2

[1] = system: wild-type E. coli K-12 str. BW25113; assay: microbe, parasite or virus in culture; details: technical duplicate; for Minimum inhibitory concentration (MIC), K-12: Table 10, without pore; for Minimum Inhibitory Concentration, K-12: Table 13A, non-porinated
Description: as §1, §2

EKO-35 araC::mdtBC = assay: MIC susceptibility profiling, efflux platform; details: for Fold change of MICs: EKO-35 araC::mdtBC compared to EKO-35; for Minimum Inhibitory Concentration, EKO-35 araC::mdtBC: Table 13B, non-porinated, technical duplicate
Description: as §1, §2

EKO-35 araC::mdtEF = assay: MIC susceptibility profiling, efflux platform; details: for Fold change of MICs: EKO-35 araC::mdtEF compared to EKO-35; for Minimum Inhibitory Concentration, EKO-35 araC::mdtEF: Table 13A, non-porinated, technical duplicate
Description: as §1, §2

wild-type (WT) K-12-Pore = assay: microbe, parasite or virus in culture; details: technical duplicate; for Minimum inhibitory concentration (MIC), Pore K-12: Table 10, with pore; for Minimum inhibitory concentration, K-12 (WT)-Pore: Table 14A, porinated
Description: (§3) For genomic integration of the pore, the fhuA ΔC/Δ4L gene and the adjacent gentamicin resistance cassette were amplified using a high-fidelity polymerase and the fhuA_40_Up/gImS_3680_Low primers (Table 4). Integration of the pore gene was performed as described above. The pore gene was introduced into the intergenic region between the glmS and pstS genes, with gene expression under the control of a constitutive promoter (Kearse, M. et al., 2012). Genomic integrations were verified using PCR (Primers: pstS_520_Up/glmS_3680_Low, Table 4). Successful integrations were transformed with pCP20 to remove the gentamicin resistance cassette as previously described. Activity of the pore was confirmed through susceptibility testing with the large antibiotic vancomycin prior to phenotypic profiling and further susceptibility testing.
as §1, §2

ΔtolC-Pore = assay: microbe, parasite or virus in culture; details: technical duplicate; for Minimum inhibitory concentration (MIC), Pore ΔtolC: Table 10, with pore; for Minimum inhibitory concentration, ΔtolC-Pore: Table 14A, porinated
Description: as §3, §1, §2

EKO-35-Pore = assay: MIC susceptibility profiling, porinated strain; details: for Fold changes of MICs: EKO-35-Pore compared to EKO-35-Pore (reference); for Minimum inhibitory concentration (MIC), Pore EKO-35: Table 10, with pore; for Minimum inhibitory concentration (MIC), Pore EKO-35 / Minimum inhibitory concentration, EKO-35-Pore: technical duplicate; for Minimum inhibitory concentration, EKO-35-Pore: Table 14A, porinated
Description: as §3, §1, §2

EKO-35 araC::acrB Pore = assay: MIC susceptibility profiling, porinated efflux platform; details: for Fold changes of MICs: EKO-35 araC::acr-B Pore compared to EKO-35-Pore; for Minimum inhibitory concentration, EKO-35 araC::acrB Pore: Table 14A, porinated, technical duplicate
Description: as §3, §1, §2

[2] = system: EKO-35 araC::acrBD408A Pore; assay: as above; details: for Fold changes of MICs: EKO-35 araC::acrBD408A Pore compared to EKO-35-Pore; for Minimum inhibitory concentration: EKO-35 araC::acrBD408A Pore, technical duplicate
Description: as §3, §1, §2

EKO-35 araC::acrD Pore = assay: as above; details: for Fold changes of MICs: EKO-35 araC::acrD Pore compared to EKO-35-Pore; for Minimum inhibitory concentration, EKO-35 araC::acrD Pore: Table 14A, porinated, technical duplicate
Description: as §3, §1, §2

EKO-35 araC::acrEF Pore = assay: as above; details: for Fold changes of MICs: EKO-35 araC::acrEF Pore compared to EKO-35-Pore; for Minimum inhibitory concentration, EKO-35 araC::acrEF Pore: Table 14A, porinated, technical duplicate
Description: as §3, §1, §2

EKO-35 araC::emrAB Pore = assay: as above; details: for Fold changes of MICs: EKO-35 araC::emrAB Pore compared to EKO-35-Pore; for Minimum inhibitory concentration: EKO-35 araC::emrAB Pore, technical duplicate
Description: as §3, §1, §2

EKO-35 araC::emrKY Pore = assay: as above; details: for Fold changes of MICs: EKO-35 araC::emrKY Pore compared to EKO-35-Pore; for Minimum inhibitory concentration: EKO-35 araC::emrKY Pore, technical duplicate
Description: as §3, §1, §2

EKO-35 araC::macAB Pore = assay: as above; details: for Fold changes of MICs: EKO-35 araC::macAB Pore compared to EKO-35-Pore; for Minimum inhibitory concentration: EKO-35 araC::macAB Pore, technical duplicate
Description: as §3, §1, §2

EKO-35 araC::mdtBC Pore = assay: as above; details: for Fold changes of MICs: EKO-35 araC::mdtBC Pore compared to EKO-35-Pore; for Minimum inhibitory concentration: EKO-35 araC::mdtBC Pore, technical duplicate
Description: as §3, §1, §2

EKO-35 araC::mdtEF Pore = assay: as above; details: for Fold changes of MICs: EKO-35 araC::mdtEF Pore compared to EKO-35-Pore; for Minimum inhibitory concentration, EKO-35 araC::mdtEF Pore: Table 14A, porinated, technical duplicate
Description: as §3, §1, §2

EKO-35 araC::mexCD Pore = assay: as above; details: for Fold changes of MICs: EKO-35 araC::mexCD Pore compared to EKO-35-Pore; for Minimum inhibitory concentration: EKO-35 araC::mexCD Pore, technical duplicate
Description: as §3, §1, §2

Structure (SMILES)	Fold change of MICs (E. coli EKO-35) [fold]	Minimum inhibitory concentration (MIC), EKO-35 (E. coli EKO-35) [µg/mL]	Minimum Inhibitory Concentration, EKO-35 (E. coli EKO-35) [µg/mL]	Minimum inhibitory concentration (MIC), ΔtolC (E. coli ΔtolC) [µg/mL]	Minimum Inhibitory Concentration, ΔtolC (E. coli ΔtolC) [µg/mL]	Minimum inhibitory concentration (MIC), K-12 [1] [µg/mL]	Minimum Inhibitory Concentration, K-12 [1] [µg/mL]	Fold change of MICs (EKO-35 araC::mdtBC) [fold]	Minimum Inhibitory Concentration, EKO-35 araC::mdtBC (EKO-35 araC::mdtBC) [µg/mL]	Fold change of MICs (EKO-35 araC::mdtEF) [fold]	Minimum Inhibitory Concentration, EKO-35 araC::mdtEF (EKO-35 araC::mdtEF) [µg/mL]	Minimum inhibitory concentration (MIC), Pore K-12 (wild-type (WT) K-12-Pore) [µg/mL]	Minimum inhibitory concentration, K-12 (WT)-Pore (wild-type (WT) K-12-Pore) [µg/mL]	Minimum inhibitory concentration (MIC), Pore ΔtolC (ΔtolC-Pore) [µg/mL]	Minimum inhibitory concentration, ΔtolC-Pore (ΔtolC-Pore) [µg/mL]	Fold changes of MICs (EKO-35-Pore) [fold]	Minimum inhibitory concentration (MIC), Pore EKO-35 (EKO-35-Pore) [µg/mL]	Minimum inhibitory concentration, EKO-35-Pore (EKO-35-Pore) [µg/mL]	Fold changes of MICs (EKO-35 araC::acrB Pore) [fold]	Minimum inhibitory concentration, EKO-35 araC::acrB Pore (EKO-35 araC::acrB Pore) [µg/mL]	also measured
C=C1CCO[C@]2([C@@H](O)[C@@](C)(O)CO)NC(=O)[C@@]1(O)NC2=O [Bicyclomycin]	1	200	200	200	200	200	200	1	200	1	200	200	200	200	200	1	200	200	1	200	Fold changes of MICs [2]: 1 fold; Minimum inhibitory concentration [2]: 200 µg/mL; Fold changes of MICs (EKO-35 araC::acrD Pore): 1 fold; Minimum inhibitory concentration, EKO-35 araC::acrD Pore (EKO-35 araC::acrD Pore): 200 µg/mL; Fold changes of MICs (EKO-35 araC::acrEF Pore): 1 fold; Minimum inhibitory concentration, EKO-35 araC::acrEF Pore (EKO-35 araC::acrEF Pore): 200 µg/mL; Fold changes of MICs (EKO-35 araC::emrAB Pore): 1 fold; Minimum inhibitory concentration (EKO-35 araC::emrAB Pore): 200 µg/mL; Fold changes of MICs (EKO-35 araC::emrKY Pore): 1 fold; Minimum inhibitory concentration (EKO-35 araC::emrKY Pore): 200 µg/mL; Fold changes of MICs (EKO-35 araC::macAB Pore): 1 fold; Minimum inhibitory concentration (EKO-35 araC::macAB Pore): 200 µg/mL; Fold changes of MICs (EKO-35 araC::mdtBC Pore): 1 fold; Minimum inhibitory concentration (EKO-35 araC::mdtBC Pore): 200 µg/mL; Fold changes of MICs (EKO-35 araC::mdtEF Pore): 1 fold; Minimum inhibitory concentration, EKO-35 araC::mdtEF Pore (EKO-35 araC::mdtEF Pore): 200 µg/mL; Fold changes of MICs (EKO-35 araC::mexCD Pore): 1 fold; Minimum inhibitory concentration (EKO-35 araC::mexCD Pore): 200 µg/mL
N#CC(C#N)=NNc1cccc(Cl)c1 [CCCP]	1	12.5	12.5	0.781	0.781	25	25	1	12.5	1	12.5	12.5	12.5	0.391	0.391	1	6.25	6.25	1	6.25	Fold changes of MICs [2]: 1 fold; Minimum inhibitory concentration [2]: 6.25 µg/mL; Fold changes of MICs (EKO-35 araC::acrD Pore): 1 fold; Minimum inhibitory concentration, EKO-35 araC::acrD Pore (EKO-35 araC::acrD Pore): 6.25 µg/mL; Fold changes of MICs (EKO-35 araC::acrEF Pore): 1 fold; Minimum inhibitory concentration, EKO-35 araC::acrEF Pore (EKO-35 araC::acrEF Pore): 3.125 µg/mL; Fold changes of MICs (EKO-35 araC::emrAB Pore): 2 fold; Minimum inhibitory concentration (EKO-35 araC::emrAB Pore): 12.5 µg/mL; efflux pump-mediated resistance vs EKO-35-Pore (EKO-35 araC::emrAB Pore; EmrAB, porinated strain): no longer provided resistance; Fold changes of MICs (EKO-35 araC::emrKY Pore): 1 fold; Minimum inhibitory concentration (EKO-35 araC::emrKY Pore): 6.25 µg/mL; Fold changes of MICs (EKO-35 araC::macAB Pore): 1 fold; Minimum inhibitory concentration (EKO-35 araC::macAB Pore): 6.25 µg/mL; Fold changes of MICs (EKO-35 araC::mdtBC Pore): 2 fold; Minimum inhibitory concentration (EKO-35 araC::mdtBC Pore): 12.5 µg/mL; Fold changes of MICs (EKO-35 araC::mdtEF Pore): 1 fold; Minimum inhibitory concentration, EKO-35 araC::mdtEF Pore (EKO-35 araC::mdtEF Pore): 6.25 µg/mL; Fold changes of MICs (EKO-35 araC::mexCD Pore): 1 fold; Minimum inhibitory concentration (EKO-35 araC::mexCD Pore): 6.25 µg/mL
